Test results published in patent US12343397B2, “Drug-resistant immune cells and methods of use thereof” (Regents of the University of Minnesota, priority 2018, dated 2025).

Legend:
Tregs = test: CNI (CsA, FK506) effect on Treg survival in vitro; assay type: cell-based, human; settings: cyclosporine 20, 200, 2000 ng/ml or FK506 3, 10, 30 ng/ml, 2-3 days; IL-2 300 U/mL; even at >3-fold over peak therapeutic values
Description: The percent survival relative to the control Tregs without drugs is shown. IL-2 concentration of 300 U/mL was used. […] FIG. 7D depicts data showing the percent relative survival of Tregs without drug at IL-2 300 U/mL as compared to those cultured with the indicated concentrations of drug in the presence of IL-2 at 30, 100, or 300 U/mL as indicated. Mean values are shown±standard error of the mean for three (FIG. 7B) or four (FIG. 7D) separate cultures.
To model the in vivo inhibitory effects of CNI on Treg survival and expansion, banked Tregs were thawed, re-stimulated, expanded for 4±1 days and treated with or without cyclosporine (20, 200, and 2000 ng/ml) or FK506 (3, 10, 30 ng/ml) for an additional 2-3 days and relative survival was assessed by flow cytometry. Studies were performed with non-separated Tregs, naïve Tregs and memory Tregs, to determine whether one subset was differentially sensitive to Dex and CNIs and to determine whether IL-2 dependency differences might permit lower IL-2 concentrations.

allogeneic GVHD model = assay type: in vivo
Description: To test whether gene modified (GR2-CRISPR/Cas9) or gene edited (GR2-CRISPR/Cas9/AAV-CaN mut.) Tregs have increased efficacy in vivo in the presence of glucocorticoid, how glucocorticoid (methyl-prednisolone) effects GVHD in preclinical mouse models was first determined. […] For these reasons, as well as the more logistically feasible and cost effective benefits of an allogeneic GVHD model, optimized steroid use in allogeneic recipients for GVHD prevention and therapy were first tested, and then applied to a xenogeneic model to enable testing of the human Treg product. […] The T cell dose was reduced to 1.5×10^6 and moved to GVHD therapy beginning on day 3 or day 4 (rather than day 1 prophylaxis) and compared no treatment to vehicle to prednisolone (n=8/group).

xeno-GVHD model = test: Xenogeneic GVHD model (NSG mice given human PBMC); assay type: in vivo
Method: FIGS. 11A-11D depicts the monitoring of GVHD in mice. Human PBMC (15×10^6) were injected into irradiated (50 rad) NSG mice±methylprednisolone (15 mg/kg), and signs of GVHD were monitored. FIG. 11A depicts a schematic illustration of the experiments indicating cohorts (n=7 mice each), dosing schedule, and analysis points. FIG. 11B depicts Kaplan-Meier survival curves for mice receiving PBMC only, or PBMC+prednisolone (p=0.104). FIG. 11C depicts disease progression monitored by weight loss (p=not significant). FIG. 11D depicts disease progression monitored by quantitating the number of PBMC-derived CD45+, CD4+, CD8+, and CD4+Foxp3+ T cells (p<0.03, <0.05, <0.03, and not significant, respectively). Animals were bled on day 19 for assessment.
FIGS. 12A-12D depicts the monitoring of GVHD in mice. […] FIG. 12B depicts Kaplan-Meier survival curves for mice receiving PBMC only, or PBMC+CNI (PBMC only vs. FK506 (36 mg/kg), p≤0.04). FIG. 12C depicts disease progression monitored by weight loss (p=not significant). FIG. 12D depicts disease progression monitored by quantitating the number of PBMC-derived CD45+, CD4+, CD8+, and CD4+Foxp3+ T cells (p<0.03, <0.05, <0.02, and not significant, respectively). Animals were bled on day 18 for assessment.
A follow up study has shown that xeno-GVHD pathology induced with 200 rad+1×10^7 human PBMC is more reproducible, and median survival is reduced from ˜25 days to ˜20 days.

## C=CC[C@@H]1/C=C(\C)C[C@H](C)C[C@H](OC)[C@H]2O[C@@](O)(C(=O)C(=O)N3CCCC[C@H]3C(=O)O[C@H](/C(C)=C/[C@@H]3CC[C@@H](O)[C@H](OC)C3)[C@H](C)[C@@H](O)CC1=O)[C@H](C)C[C@@H]2OC [FK506, Tacrolimus]
Tregs
  effect on Treg survival in vitro: neither CsA or FK506 had a significant effect on Treg survival
Allogeneic GVHD model; 36 mg/kg/day in carboxymethylcellulose, vehicle 0% by day 37
  day 100 survival: 55%-90
Allogeneic GVHD model; 12 or 24 mg/kg/day in aqueous solution
  GVHD prophylaxis efficacy: poorer efficacy
Allogeneic GVHD model; allogeneic GVHD model
  optimal GVHD prophylactic dose: 36 mg/kg/day
xeno-GVHD model; 12 mg/kg, P=0.45
  survival: not significantly different
xeno-GVHD model; 12 mg/kg, controls 29 days
  median survival: 20 days
xeno-GVHD model; FK506 36 or 12 mg/kg, CsA 80 mg/kg, vs PBMC only controls
  in vivo expansion of human CD45+, CD4+ and CD8+ cells: significantly reduced
xeno-GVHD model; high dose, 36 mg/kg
  survival: significantly decreased survival
